Data from patent US20250092065A1, “2-(INDAZOL-5-YL)-6-(PIPERIDIN-4-YL)-1,7-NAPHTHYRIDINE DERIVATIVES AND RELATED COMPOUNDS AS MODULATORS FOR SPLICING NUCLEIC ACIDS AND FOR THE TREATMENT OF PROLIFERATIVE DISEASES” (REMIX THERAPEUTICS INC., priority 2022, published 2025).
Like-named read-outs stand apart in the source and are kept apart here.

Assays:
[1] = tested on: K562 cells; experiment: Cell Titer Glo 2.0 cell viability (toxicity) assay, K562; details: 500 cells/well, 72 hours
[2] = tested on: Target C; experiment: HiBiT protein abundance assay, Target C (K562 HiBiT knock-in); type: cell-based, human; details: HiBiT knock-in K562 cells, 24 hours, top dose 10 μM
Description: (§1) Cells were maintained in IMIDM with 10% FBS. Before the assay, cells were diluted with […] growth media (IMIDM+[…] media) and were seeded in a 384-well plate at a density of 10000 cells/well (for each cell line listed in Table 6). Each compound was prepared as a 10-point 3-fold serial dilution in DMSO with the top dose at a final concentration of 10 μM in the well. Unmodified K562 cells were added at the previously specified density with DMSO to serve as an assay baseline and positive control (PC) and DMSO only with the respective modified cell lines was added to the negative control (NC) columns. Final DMSO concentration was kept at or below 0.25%. Treated cell plates were placed in an incubator at 37° C. with […] for 24 hours. After 24 hours, 25 μL of Complete HiBit Lytic reagent was added to each well at room temperature (e.g. one plate requiring 10 mL Lytic Buffer, 100 μL LgBiT Protein, 200 μL Lytic Substrate), shaken for 5 minutes at 600 RPM, then left to sit for 10 minutes for signal to stabilize before reading on a Spark Cyto plate reader (Tecan) with a 500 ms measurement time.
(§2) To determine compound effects on protein abundance of each target in Table 6, the percent response for each respective cell line was calculated at each compound concentration as follows:
(§3) % response=100*(S−PC)(NC−PC)
(§4) For the normalized response at each concentration, a four-parameter logistical regression was fit to the data and the response was interpolated at the […] to determine a concentration for protein abundance at 50% (IC50) the untreated control.

[3] = tested on: HTT; experiment: HiBiT protein abundance assay, HTT (K562 HiBiT knock-in); type: cell-based, human; details: HiBiT knock-in K562 cells, 24 hours, top dose 10 μM
Description: (§5) Compounds described herein were used to screen for effects on quantitative protein abundance using a HiBit assay system (Promega). Quantitative protein abundance was determined by measuring the protein levels of HiBit-tagged protein targets expressed in cell culture via luminescence using the Nano-Glo HiBiT Lytic Detection System, which uses a split complementation assay format to reconstitute NanoBiT enzyme to generate a luminescent signal. A protein abundance assay was developed such that endogenous protein targets could be modified with the HiBiT peptide tag and their abundance could be assessed after compound treatment. Briefly, K562 cell lines containing a HiBiT-modification were treated with various compounds described herein (e.g., compounds of Formulas (I), or (II)). After treatment for 24 hours, the protein abundance of a specific target was determined by measuring luminescence.
as §1, §2, §3, §4

[4] = tested on: MYB mRNA; experiment: RT-qPCR splicing assay, MYB mRNA canonical (CJ) and alternative (AJ) junction; type: cell-based, human; details: Homo sapiens; for AC50: MYB alternative junction mRNA, read-out: MYB AJ (increase in AJ mRNA, AC50)
Summary of the method: (§6)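 Junction-specific RT-qPCR read-out: CJ and AJ isoform levels, housekeeper-normalized (GAPDH/GUSB/PPIA), ΔΔCt vs DMSO, converted to RQ then % response. Cells: A673 (DMEM/10% FBS, adhered 24 h) or K562 (IMDM/10% FBS). Compound 11-pt 3-fold, top 10 uM, 24 h, 37 °C.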

[5] = tested on: SMN2 mRNA; experiment: RT-qPCR splicing assay, SMN2 mRNA; type: cell-based, human; details: Homo sapiens, canonical junction qPCR panel, Table 4; read-out: SMN2 IC50 (decrease in CJ mRNA levels)
Summary of the method: as §6

[6] = tested on: MYB; experiment: HiBiT protein abundance assay, MYB (K562 HiBiT knock-in); type: cell-based, human; details: HiBiT knock-in K562 cells, 24 hours, top dose 10 μM
Description: as §5, §1, §2, §3, §4

[7] = tested on: HTT mRNA; experiment: RT-qPCR splicing assay, HTT mRNA canonical (CJ) and alternative (AJ) junction; type: cell-based, human; details: Homo sapiens; for AC50: HTT alternative junction mRNA, read-out: HTT AJ (increase in AJ mRNA, AC50)
Summary of the method: as §6

[8] = MYB canonical junction mRNA, RT-qPCR, read-out: MYB CJ (decrease in CJ mRNA levels, IC50)
[9] = canonical junction qPCR panel, Table 4, read-out: MYB IC50 (decrease in CJ mRNA levels)
[10] = HTT canonical junction mRNA, RT-qPCR, read-out: HTT CJ (decrease in CJ mRNA levels, IC50)
[11] = canonical junction qPCR panel, Table 4, read-out: HTT IC50 (decrease in CJ mRNA levels)

Compound	IC50 [2] [nM]	IC50 [3] [nM]	IC50 [4, 8] [nM]	IC50 [4, 9] [nM]	IC50 [5] [nM]	IC50 [6] [nM]	IC50 [7, 10] [nM]	IC50 [7, 11] [nM]	Effect of Exemplary Compounds on Cell Viability, K562 [1]	AC50 ([4]; RT-qPCR) [nM]	AC50 ([7]; RT-qPCR) [nM]
Cn1cc2cc(-c3ccc4nc(N5CCNC(C)(C)C5)ccc4n3)c(O)cc2n1 [Compound 120]	1000 to 10000	1000 to 10000	100 to 1000	100 to 1000	< 100	1000 to 10000	1000 to 10000	1000 to 10000	B (B represents 100-1000 nM)	100 to 1000	1000 to 10000
Cn1cc2cc(-c3ccc4nc(N5CCNC6(CC6)C5)ccc4n3)c(O)cc2n1 [Compound 121]	1000 to 10000	1000 to 10000	100 to 1000	100 to 1000	1000 to 10000	1000 to 10000	1000 to 10000	1000 to 10000	C (C represents 1000-9999 nM)	100 to 1000	1000 to 10000
Cn1cc2cc(-c3ccc4nc(N5CCC(N6CCCC6)C5)ccc4n3)c(O)cc2n1 (stereo not shown) [Compound 125]	100 to 1000	100 to 1000	100 to 1000	100 to 1000	< 100	100 to 1000	100 to 1000	100 to 1000	B (B represents 100-1000 nM)	< 100	100 to 1000
CCNC1CCN(c2ccc3nc(-c4cc5cn(C)nc5cc4O)ccc3n2)CC1 [Compound 131]	1000 to 10000	1000 to 10000	1000 to 10000	1000 to 10000	< 100	1000 to 10000	1000 to 10000	1000 to 10000	B (B represents 100-1000 nM)	1000 to 10000	> 10000
Cn1cc2cc(-c3ccc4nc(N5CCC(NC(C)(C)C)CC5)ccc4n3)c(O)cc2n1 [Compound 132]	> 10000	> 10000	> 10000	> 10000	> 10000	> 10000	> 10000	> 10000	C (C represents 1000-9999 nM)	> 10000	> 10000
Cn1cc2cc(-c3ccc4nc(N5CCNCC5)ccc4n3)c(O)cc2n1 [Compound 136]	100 to 1000	100 to 1000	100 to 1000	100 to 1000	< 100	100 to 1000	1000 to 10000	1000 to 10000	B (B represents 100-1000 nM)	100 to 1000	1000 to 10000
C[C@@H]1CC(c2ccc3nc(-c4cc5cn(C)nc5cc4O)ccc3n2)C[C@H](C)N1 (stereo partly shown) [Compound 137]	100 to 1000	100 to 1000	100 to 1000	100 to 1000	< 100	100 to 1000	100 to 1000	100 to 1000	B (B represents 100-1000 nM)	100 to 1000	1000 to 10000
C[C@H]1C[C@H](c2ccc3nc(-c4cc5cn(C)nc5cc4O)ccc3n2)CCN1 [Compound 139]	< 100	100 to 1000	< 100	< 100	< 100	100 to 1000	< 100	< 100	B (B represents 100-1000 nM)	< 100	< 100
C[C@H]1C[C@@H](c2ccc3nc(-c4cc5cn(C)nc5cc4O)ccc3n2)CCN1 [Compound 140]	100 to 1000	100 to 1000	< 100	< 100	< 100	100 to 1000	< 100	< 100	B (B represents 100-1000 nM)	100 to 1000	100 to 1000

Further lines, with some results ahead:

IC50 [2] [nM]	IC50 [3] [nM]	IC50 [4, 8] [nM]	IC50 [4, 9] [nM]	IC50 [5] [nM]	IC50 [6] [nM]	IC50 [7, 10] [nM]	IC50 [7, 11] [nM]	Compound	Effect of Exemplary Compounds on Cell Viability, K562 [1]	AC50 ([4]; RT-qPCR) [nM]	AC50 ([7]; RT-qPCR) [nM]
< 100	< 100	100 to 1000	100 to 1000	< 100	100 to 1000	< 100	< 100	Cn1cc2cc(-c3ccc4nc(N5CC6(CNC6)C5)ccc4n3)c(O)cc2n1 [Compound 124]	B (B represents 100-1000 nM)	100 to 1000	100 to 1000
< 100	< 100	< 100	< 100	< 100	< 100	< 100	< 100	Cn1cc2cc(-c3ccc4nc(N5CCC(NC(C)(C)C)C5)ccc4n3)c(O)cc2n1 (stereo not shown) [Compound 127]	B (B represents 100-1000 nM)	< 100	< 100
100 to 1000	100 to 1000	100 to 1000	100 to 1000	< 100	100 to 1000	100 to 1000	100 to 1000	CN(C)C1CCN(c2ccc3nc(-c4cc5cn(C)nc5cc4O)ccc3n2)C1 (stereo not shown) [Compound 129]	B (B represents 100-1000 nM)	100 to 1000	100 to 1000
1000 to 10000	1000 to 10000	1000 to 10000	1000 to 10000	< 100	1000 to 10000	1000 to 10000	1000 to 10000	CN(C)C1CCN(c2ccc3nc(-c4cc5cn(C)nc5cc4O)ccc3n2)CC1 [Compound 133]	B (B represents 100-1000 nM)	100 to 1000	1000 to 10000
100 to 1000	100 to 1000	100 to 1000	100 to 1000	< 100	100 to 1000	100 to 1000	100 to 1000	CCN1CCC(c2ccc3nc(-c4cc5cn(C)nc5cc4O)ccc3n2)CC1 [Compound 138]	B (B represents 100-1000 nM)	100 to 1000	100 to 1000
1000 to 10000	1000 to 10000	100 to 1000	100 to 1000	100 to 1000	1000 to 10000	1000 to 10000	1000 to 10000	Cn1cc2c(O)c(-c3cc4ccc(C5CCNCC5)nc4cn3)cc(Br)c2n1 [Compound 141]	C (C represents 1000-9999 nM)	1000 to 10000	1000 to 10000
100 to 1000	100 to 1000	100 to 1000	100 to 1000	< 100	100 to 1000	100 to 1000	100 to 1000	CN1CCC(c2ccc3nc(-c4cc5cn(C)nc5cc4O)ccc3n2)CC1 [Compound 142]	B (B represents 100-1000 nM)	100 to 1000	100 to 1000
1000 to 10000	> 10000	> 10000	> 10000	> 10000	> 10000	> 10000	> 10000	COc1cc2nn(C)cc2cc1-c1ccc2c(F)c(C3CCNCC3)ccc2n1 [Compound 143]	B (B represents 100-1000 nM)	> 10000	> 10000
